Experimental data as given in patent publication USRE47689E1, “Compounds for treating spinal muscular atrophy” (PTC Therapeutics, Inc., priority 2011, dated 2019).

Key:
[1] = tested on: full length and Δ7 SMN2 mRNAs; experiment: Endogenous SMN2 mRNA RT-qPCR splicing assay in cultured cells; assay type: cell-based, human; conditions: GM03813 Type 1 SMA patient fibroblasts, increasing concentrations, 24 hrs
Protocol: The reverse transcription-quantitative PCR-based (RT-qPCR) assay is used to quantify the levels of the full length and Δ7 SMN2 mRNAs in primary cells and cell lines containing the SMN2 gene treated with a test compound.
Protocol. GM03813 SMA patient cells (5,000 cells/well) are seeded in 200 μL, of cell culture medium (DMEM plus 10% FBS) in 96-well flat-bottom plates and the plate is immediately swirled to ensure proper dispersal of cells, forming an even monolayer of cells. Cells are allowed to attach for at least 4-6 hrs. Test compounds are serially diluted 3.16-fold in 100% DMSO to generate a 7-point concentration curve. A solution of test compound (1 μL, 200× in DMSO) is added to each test well and 1 μL, DMSO is added to each control well. The plate is incubated for 24 hrs in a cell culture incubator (37° C., 5% CO2, 100% relative humidity). The cells are then lysed in Cells-To-Ct lysis buffer and the lysate is stored at −80° C.
SMN2-specific spliced products and GAPDH mRNA are identified using the following primers and probes in Table 5. Primer SMN FL Forward B (SEQ ID NO. 7) hybridizes to a nucleotide sequence in exon 7 (nucleotide 32 to nucleotide 54) and exon 8 (nucleotide 1 to nucleotide 4), primer SMN Δ7 Forward B (SEQ ID NO. 8) hybridizes to a nucleotide sequence in exon 6 (nucleotide 87 to nucleotide 111) and exon 8 (nucleotide 1 to nucleotide 3), primer SMN Reverse B (SEQ ID NO. 9) hybridizes to a nucleotide sequence in exon 8 (nucleotide 39 to nucleotide 62), probe SMN Probe B (SEQ ID NO. 10) hybridizes to a nucleotide sequence in exon 8 (nucleotide 7 to nucleotide 36). These primers and probe hybridize to nucleotide sequences common to human SMN1 and SMN2 mRNAs. Since the SMA patient cells used in Example 3 contain only the SMN2 gene, RT-qPCR can quantify only SMN2 full-length and Δ7 mRNA.
The SMN forward and reverse primers are used at final concentrations of 0.4 μM. The SMN probe is used at a final concentration of 0.15 μM. GAPDH primers are used at final concentrations of 0.1 μM and the probe at 0.075 μM. TaqMan gene expression assays were conducted at 20× concentrations with the GAPDH primers and Vic labeled probe provided as a 20× mixture. The One-Step RT-PCR kit was used as the Real-Time PCR Mix. […]
The increase of SMN2 FL and decrease in SMN2 Δ7 mRNAs relative to those in cells treated with vehicle control are determined from real-time PCR data using a modified ΔΔCt method (as described in Livak and Schmittgen, Methods, 2001, 25:402-8). The amplification efficiency E is calculated from the slope of the amplification curve for SMN2 FL, SMN2 Δ7, and GAPDH individually. The abundances of SMN2 FL, SMN2 Δ7, and GAPDH are then calculated as (1+E)^−Ct, where Ct is the threshold value for each amplicon. […]

Smn protein = Smn protein assay in cultured cells (SMN HTRF); assay type: cell-based, human; conditions: 48 hours; for Smn protein expression: SMA Type 1 patient fibroblast cells, SMN HTRF assay; for maximum fold (Fold) increase of Smn protein: SMA patient fibroblast cells, 7-point concentration data, fold increase relative to vehicle control (SMN HTRF)
Summary of the method: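 Smn in SMA fibroblast lysates, measured by anti-SMN HTRF after 48 h compound exposure; EC1.5x from fold change over vehicle.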

`CC(C)NCCc1ccc2cc(-c3nc4c(Cl)cccc4s3)c(=O)oc2c1` [Cpd 35, 3-(4-chloro-1,3-benzothiazol-2-yl)-7-[2-(propan-2-ylamino)ethyl]-2H-chromen-2-one] was tested, and the “SMN2 FL mRNA relative to vehicle” value [1] was “progressively more SMN2 FL mRNA”, the “SMN2 Δ7 mRNA relative to vehicle” value [1] was “less SMN2 Δ7 mRNA” and the Smn protein expression (Smn protein) was “dose dependent increase in Smn protein expression”. For the same compound, the “maximum fold (Fold) increase of Smn protein” value (Smn protein) was “* (maximum fold increase of ≤1.2)”.
In the case of `CCN1CCN(c2ccc3cc(-c4cn5cc(C)nc(C)c5n4)c(=O)oc3c2)C[C@@H]1C` [Cpd 626, 3-(6,8-dimethylimidazo[1,2-a]pyrazin-2-yl)-7-[(3S)-4-ethyl-3-methylpiperazin-1-yl]-2H-chromen-2-one], the “SMN2 FL mRNA relative to vehicle” value [1] is reported as “progressively more SMN2 FL mRNA”, the “SMN2 Δ7 mRNA relative to vehicle” value [1] is reported as “less SMN2 Δ7 mRNA” and the EC1.5x (concentration giving 1.5-fold Smn protein increase) (Smn protein; SMA Type 1 patient fibroblast cells (GM03813), 7-point concentration curve, SMN HTRF, concentration producing 1.5 times Smn protein vs DMSO vehicle control, read-out: EC1.5x for Smn protein expression) is reported as less than 300 nM. For the same compound, the Smn protein expression (Smn protein) was “dose dependent increase in Smn protein expression” and the “maximum fold (Fold) increase of Smn protein” value (Smn protein) was “**** (fold increase between >1.5 and ≤1.65)”.
